Source: patent publication US11535593B2, “3-phosphoglycerate dehydrogenase inhibitors and uses thereof” (Raze Therapeutics, Inc., priority 2016, dated 2022)

Target: T1, Full length (FL) 3-Phosphoglycerate Dehydrogenase (PHGDH) (Homo sapiens, UniProt O43175)
T1 construct: Full length (FL) 3-Phosphoglycerate Dehydrogenase (PHGDH) Diaphorase coupled assay (500 uM NAD)
T1 sequence (O43175 1-533): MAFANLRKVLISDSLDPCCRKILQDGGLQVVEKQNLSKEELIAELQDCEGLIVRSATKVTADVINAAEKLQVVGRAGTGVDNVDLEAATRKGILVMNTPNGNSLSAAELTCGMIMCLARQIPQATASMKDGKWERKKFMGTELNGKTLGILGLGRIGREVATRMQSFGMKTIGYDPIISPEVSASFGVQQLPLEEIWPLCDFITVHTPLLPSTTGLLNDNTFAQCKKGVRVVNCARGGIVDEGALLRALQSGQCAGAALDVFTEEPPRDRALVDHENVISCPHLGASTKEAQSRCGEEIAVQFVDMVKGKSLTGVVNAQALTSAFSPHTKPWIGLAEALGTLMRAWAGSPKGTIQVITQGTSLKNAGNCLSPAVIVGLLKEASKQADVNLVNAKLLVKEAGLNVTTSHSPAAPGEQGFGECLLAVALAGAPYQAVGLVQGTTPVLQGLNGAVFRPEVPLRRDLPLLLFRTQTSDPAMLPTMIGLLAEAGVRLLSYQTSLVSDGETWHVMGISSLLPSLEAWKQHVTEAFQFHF
Assay: Full length (FL) PHGDH Diaphorase coupled assay (500 uM NAD)
Format: biochemical
Details: 5 nM PHGDH, 30° C., 60 minutes
Experimental: Full length (FL) 3-Phosphoglycerate Dehydrogenase (PHGDH) Diaphorase coupled assay (500 uM NAD)
PHGDH activity was determined by detecting the NADH produced during the reaction. Diaphorase was used to catalyze the oxidation of NADH with the concomitant reduction of resazurin to the fluorescent product resorufin. Resorufin fluorescence quantitatively reflected the production of NADH by the PHGDH reaction. To drive the forward reaction, two enzymes in the serine synthesis pathway subsequent to PHGDH, Phosphoserine aminotransferase (PSAT1) and phosphoserine phosphatase (PSPH) were also added to the reaction.

**Q.** For `CCC(C(=O)O)c1ccc([C@@H](CO)NC(=O)c2cc3c(Cl)c(Cl)c(OC)cc3n2C)cc1` (mixture of isomers) [Compound I-4, (±)-2-[4-[(1S)-1-[(4,5-dichloro-6-methoxy-1-methyl-indole-2-carbonyl)amino]-2-hydroxy-ethyl]phenyl]butanoic Acid], which IC50 is on record?
**A.** 10 to 1000 nM

**Q.** Which IC50 does the source give for `CCC(C(=O)O)c1ccc([C@@H](CO)NC(=O)c2cc3c(Cl)c(OC)ccc3n2C)cc1` (mixture of isomers) [Compound I-5, (±)-2-[4-[(1S)-1-[(4-chloro-5-methoxy-1-methyl-indole-2-carbonyl)amino]-2-hydroxy-ethyl]phenyl]butanoic Acid] here?
**A.** 10 to 1000 nM

**Q.** With `CCC(C(=O)O)c1ccc([C@@H](CO)NC(=O)c2cc3c(Cl)c(Cl)ccc3n2C)cc1` (mixture of isomers) [Compound I-15, (±)-2-[4-[(1S)-1-[(4,5-dichloro-1-methyl-indole-2-carbonyl)amino]-2-hydroxy-ethyl]phenyl]butanoic Acid] as the compound, how does the IC50 read?
**A.** 10 to 1000 nM

**Q.** Which IC50 does the source give for `CC(NC(=O)c1cc2c(Cl)c(Cl)ccc2n1C)c1ccc(CC(=O)O)cc1` (racemic) [Compound I-34, (±)-2-(4-(1-(4,5-Dichloro-1-methyl-1H-indole-2-carboxamido)ethyl)phenyl) acetic Acid] here?
**A.** 10 to 1000 nM

**Q.** Which IC50 does the source give for `Cn1c(C(=O)NC(c2ccc(C(=O)O)cc2)C(F)(F)F)cc2c(Cl)c(Cl)ccc21` (racemic) [Compound I-38, (±)-4-(1-(4,5-Dichloro-1-methyl-1H-indole-2-carboxamido)-2,2,2-trifluoroethyl)benzoic Acid] here?
**A.** 1000 to 5000 nM

**Q.** How did the IC50 turn out when `CC(C)C(C(=O)O)c1ccc([C@@H](CO)NC(=O)c2cc3c(Cl)c(Cl)ccc3n2C)cc1` (mixture of isomers) [Compound I-56, (±)-2-[4-[(1S)-1-[(4,5-dichloro-1-methyl-indole-2-carbonyl)amino]-2-hydroxy-ethyl]phenyl]-3-methyl-butanoic Acid] was run?
**A.** 10 to 1000 nM

**Q.** For `CC(C)C(C(=O)O)c1ccc([C@@H](CO)NC(=O)c2cc3c(Cl)c(Cl)ccc3n2C)cc1` (single isomer, unassigned) [Compound I-54, (2R or 2S)-2-[4-[(1S)-1-[(4,5-dichloro-1-methyl-indole-2-carbonyl)amino]-2-hydroxy-ethyl]phenyl]-3-methyl-butanoic acid], which IC50 is on record?
**A.** 10 to 1000 nM

**Q.** With `Cn1c(C(=O)N[C@H](CO)c2ccc(C(C)(C)C(=O)O)cc2)cc2c(Cl)c(Cl)ccc21` [Compound I-1] as the compound, how does the IC50 read?
**A.** 10 to 1000 nM

**Q.** With `COc1ccc2c(cc(C(=O)N[C@H](CO)c3ccc(C(C)(C)C(=O)O)cc3)n2C)c1Cl` [Compound I-2] as the compound, how does the IC50 read?
**A.** 10 to 1000 nM

**Q.** Which IC50 does the source give for `Cn1c(C(=O)N[C@H](CO)c2ccc(C3(C(=O)O)CC3)cc2)cc2c(Cl)c(Cl)ccc21` [Compound I-3] here?
**A.** 10 to 1000 nM

**Q.** For `Cn1c(C(=O)NC(CF)c2ccc(C(=O)O)cc2)cc2c(Cl)c(Cl)ccc21` (stereo not drawn) [Compound I-6], which IC50 is on record?
**A.** 10 to 1000 nM

**Q.** For `COc1cc2c(cc(C(=O)N[C@H](CO)c3ccc(C(=O)O)cc3C)n2C)c(Cl)c1Cl` [Compound I-7], which IC50 is on record?
**A.** 10 to 1000 nM

**Q.** For `COc1cc2c(cc(C(=O)N[C@H](CO)c3ccc(C(=O)O)cc3C)n2C)c(Cl)c1C` [Compound I-8], which IC50 is on record?
**A.** 10 to 1000 nM

**Q.** Which IC50 does the source give for `COc1ccc2c(cc(C(=O)N[C@H](CO)c3ccc(CC(=O)O)cc3Cl)n2C)c1Cl` [Compound I-9, 2-{3-chloro-4-[(1S)-1-[(4-chloro-5-methoxy-1-methyl-1H-indol-2-yl)formamido]-2-hydroxyethyl]phenyl}acetic acid] here?
**A.** 10 to 1000 nM

**Q.** `Cn1c(C(=O)N[C@H](CO)c2ccc(CC(=O)O)cc2Cl)cc2c(Cl)c(Cl)ccc21` [Compound I-10, 2-{3-chloro-4-[(1S)-1-[(4,5-dichloro-1-methyl-1H-indol-2-yl)formamido]-2-hydroxyethyl]phenyl}-acetic acid] was tested. Which IC50 did it give?
**A.** 10 to 1000 nM

**Q.** For `COc1ccc2c(cc(C(=O)N[C@H](CO)c3ccc(C(=O)O)cc3C)n2C)c1Cl` [Compound I-11], which IC50 is on record?
**A.** 10 to 1000 nM

**Q.** How did the IC50 turn out when `COc1cc2c(cc(C(=O)N[C@H](CO)c3ccc(C(=O)O)cc3F)n2C)c(Cl)c1C` [Compound I-12] was run?
**A.** 10 to 1000 nM

**Q.** Which IC50 does the source give for `COc1ccc2c(cc(C(=O)N[C@H](CO)c3ccc(C(=O)O)cc3F)n2C)c1Cl` [Compound I-13] here?
**A.** 10 to 1000 nM

**Q.** Which IC50 does the source give for `CC(C(=O)O)c1ccc([C@@H](CO)NC(=O)c2cc3c(Cl)c(Cl)ccc3n2C)cc1` (stereo partly drawn) [Compound I-14] here?
**A.** 10 to 1000 nM

**Q.** With `COc1cc2c(cc(C(=O)N[C@H](CO)c3ccc(C(=O)O)cc3Cl)n2C)c(Cl)c1C` [Compound I-16, 3-chloro-4-[(1S)-1-[(4-chloro-6-methoxy-1,5-dimethyl-1H-indol-2-yl)formamido]-2-hydroxyethyl]benzoic acid] as the compound, how does the IC50 read?
**A.** 10 to 1000 nM

**Q.** Which IC50 does the source give for `COc1cc2c(cc(C(=O)N[C@H](CO)c3ccc(C(=O)O)cc3Cl)n2C)c(Cl)c1Cl` [Compound I-17, 3-chloro-4-[(1S)-1-[(4,5-dichloro-6-methoxy-1-methyl-1H-indol-2-yl)formamido]-2-hydroxyethyl]benzoic acid] here?
**A.** 10 to 1000 nM

**Q.** Which IC50 does the source give for `Cc1cc(C(=O)O)ccc1[C@@H](CO)NC(=O)c1cc2c(Cl)c(Cl)ccc2n1C` [Compound I-18] here?
**A.** 10 to 1000 nM

**Q.** With `Cc1cc(CC(=O)O)ccc1[C@@H](CO)NC(=O)c1cc2c(Cl)c(Cl)ccc2n1C` [Compound I-19] as the compound, how does the IC50 read?
**A.** 10 to 1000 nM

**Q.** For `COc1cc2c(cc(C(=O)N[C@H](CO)c3ccc(C(=O)O)cc3F)n2C)c(Cl)c1Cl` [Compound I-20], which IC50 is on record?
**A.** 10 to 1000 nM

**Q.** For `COc1ccc2c(cc(C(=O)N[C@H](CO)c3ccc(C(=O)O)cc3Cl)n2C)c1Cl` [Compound I-21, 3-chloro-4-[(1S)-1-[(4-chloro-5-methoxy-1-methyl-1H-indol-2-yl)formamido]-2-hydroxyethyl]benzoic acid], which IC50 is on record?
**A.** 10 to 1000 nM

**Q.** `Cn1c(C(=O)N[C@H](CO)c2ccc(C(=O)O)cc2F)cc2c(Cl)c(Cl)ccc21` [Compound I-22] was tested. Which IC50 did it give?
**A.** 10 to 1000 nM

**Q.** With `COc1ccc2c(cc(C(=O)N[C@H](CO)c3ccc(CC(=O)O)cc3)n2C)c1Cl` [Compound I-23, 2-{4-[(1S)-1-[(4-chloro-5-methoxy-1-methyl-1H-indol-2-yl)formamido]-2-hydroxyethyl]phenyl}acetic acid] as the compound, how does the IC50 read?
**A.** 10 to 1000 nM

**Q.** How did the IC50 turn out when `COc1cc2c(cc(C(=O)N[C@H](CO)c3ccc(CC(=O)O)cc3F)n2C)c(Cl)c1F` [Compound I-24] was run?
**A.** 10 to 1000 nM

**Q.** For `COc1cc2c(cc(C(=O)N[C@H](CO)c3ccc(CC(=O)O)cc3F)n2C)c(Cl)c1C` [Compound I-26], which IC50 is on record?
**A.** 10 to 1000 nM

**Q.** `Cn1c(C(=O)N[C@H](CO)c2ccc(C(=O)O)cc2Cl)cc2c(Cl)c(Cl)ccc21` [Compound I-27, 3-chloro-4-[(1S)-1-[(4,5-dichloro-1-methyl-1H-indol-2-yl)formamido]-2-hydroxyethyl]benzoic acid] was tested. Which IC50 did it give?
**A.** 10 to 1000 nM

**Q.** `COc1cc2c(cc(C(=O)N[C@H](CO)c3ccc(CC(=O)O)cc3F)n2C)c(Cl)c1Cl` [Compound I-28, 2-{4-[(1S)-1-[(4,5-dichloro-6-methoxy-1-methyl-1H-indol-2-yl)formamido]-2-hydroxyethyl]-3-fluorophenyl}acetic acid] was tested. Which IC50 did it give?
**A.** 10 to 1000 nM

**Q.** With `Cn1c(C(=O)N[C@H](CO)c2ccc(CC(=O)O)cc2)cc2c(Cl)c(Cl)ccc21` [Compound I-29, 2-{4-[(1S)-1-[(4,5-dichloro-1-methyl-1H-indol-2-yl)formamido]-2-hydroxyethyl]phenyl}acetic acid] as the compound, how does the IC50 read?
**A.** 10 to 1000 nM

**Q.** `CC(NC(=O)c1cc2c(Cl)c(Cl)ccc2n1C)c1ccc(C(=O)O)cc1F` (stereo not drawn) [Compound I-30] was tested. Which IC50 did it give?
**A.** 10 to 1000 nM

**Q.** For `CC(NC(=O)c1cc2c(Cl)c(Cl)ccc2n1C)c1ccc(CC(=O)O)cc1F` (stereo not drawn) [Compound I-31], which IC50 is on record?
**A.** 10 to 1000 nM

**Q.** With `Cn1c(C(=O)N[C@H](CO)c2ccc(CC(=O)O)cc2F)cc2c(Cl)c(Cl)ccc21` [Compound I-32, 2-{4-[(1S)-1-[(4,5-dichloro-1-methyl-1H-indol-2-yl)formamido]-2-hydroxyethyl]-3-fluorophenyl}acetic acid] as the compound, how does the IC50 read?
**A.** 10 to 1000 nM

**Q.** Which IC50 does the source give for `CC(NC(=O)c1cc2c(Cl)c(Cl)ccc2n1C)c1ccc(C(=O)O)cc1Cl` (stereo not drawn) [Compound I-33] here?
**A.** 10 to 1000 nM

**Q.** Which IC50 does the source give for `Cn1c(C(=O)NC(C)(C)c2ccc(C(=O)O)cc2)cc2c(Cl)c(Cl)ccc21` [Compound I-35] here?
**A.** 1000 to 5000 nM

**Q.** `Cn1c(C(=O)NC(CC2CC2)c2ccc(C(=O)O)cc2)cc2c(Cl)c(Cl)ccc21` (stereo not drawn) [Compound I-36] was tested. Which IC50 did it give?
**A.** 1000 to 5000 nM

**Q.** Which IC50 does the source give for `Cn1c(C(=O)NCc2ccc(C(=O)O)cc2)cc2c(Cl)c(Cl)ccc21` [Compound I-37] here?
**A.** 1000 to 5000 nM

**Q.** How did the IC50 turn out when `Cn1c(C(=O)N[C@H](CO)c2ccc(C(=O)O)cc2)cc2c(Cl)c(Cl)c(OCC(=O)NCCO)cc21` [Compound I-40, 4-[(1S)-1-[[4,5-Dichloro-6-[2-(2-hydroxyethylamino)-2-oxo-ethoxy]-1-methyl-indole-2-carbonyl]amino]-2-hydroxy-ethyl]benzoic Acid] was run?
**A.** 10 to 1000 nM

**Q.** `Cn1c(C(=O)NC(c2ccc(C(=O)O)cc2)C2CC2)cc2c(Cl)c(Cl)ccc21` (stereo not drawn) [Compound I-42] was tested. Which IC50 did it give?
**A.** 1000 to 5000 nM

Same assay, conditions: read-out: FL Diaphorase 500 μM NAD (PHGDH activity inhibition, IC50), 5 nM PHGDH, 30° C., 60 minutes

**Q.** `CC(C)C(C(=O)O)c1ccc([C@@H](CO)NC(=O)c2cc3c(Cl)c(Cl)ccc3n2C)cc1` (single isomer, unassigned) [Compound I-55, (2S or 2R)-2-[4-[(1S)-1-[(4,5-dichloro-1-methyl-indole-2-carbonyl)amino]-2-hydroxy-ethyl]phenyl]-3-methyl-butanoic acid] was tested. Which IC50 did it give?
**A.** 10 to 1000 nM
